“Also recorded” adds a separate entry of the source. Read-outs that look alike come from different tables or passages of the source.
How the values were obtained:
[1] = test system: modified vaccinia virus, such as GLV-1h68; set-up: species or system patient; conditions: human, in vivo
[2] = test system: tumor; set-up: species or system patient; conditions: human, in vivo
[3] = test system: recombinant vaccinia virus GLV-1h68; format: cell-based
[4] = human, in vivo; for Side effects from the virus: iv
[5] = test system: recombinant vaccinia virus GLV-1h68; format: cell-based; remark: listed apart in the source
[6] = test system: A549 lung carcinoma cells; set-up: species or system nude mice; conditions: mouse, in vivo
[7] = test system: recombinant vaccinia virus GLV-1h68; format: cell-based; remark: listed apart in the source
[8] = test system: PANC-1 human pancreatic carcinoma cells; set-up: species or system nude mice; conditions: mouse, in vivo
[9] = Pock formation (systemic toxicity) after i.v. GLV-1h68 in GI-101A tumor-bearing mice; conditions: 80 days after virus injection; GLV-1h68 virus-treated animals given four doses of irinotecan 80 mg/kg i.p.; n=8
[10] = test system: GI-101A human breast carcinoma cells; set-up: species or system nude mice; conditions: mouse, in vivo

SMILES	Viral load in the bloodstream [1]	Viral load in the bloodstream: decrease [1]	Viral load in the bloodstream: increase [1]	Viral load in the bloodstream ([1]; iv)	Tumor growth [2]	Concentration at which growth of GLV-1h68 was completely inhibited [3]	Effect on GLV-1h68 growth in GI-101A cells (in words) [3]	Body weight and pock formation [4]	Patient's symptoms [4]	Virus-associated side effects [4]	Side effects from the virus [4]	Concentration at which growth of GLV-1h68 was completely inhibited [5]	Effect on GLV-1h68 growth in GI-101A cells (in words) [5]	Tumor growth ([2]; iv)	Effect on tumor growth (in words) [6]	Concentration at which growth of GLV-1h68 was completely inhibited [7]	Effect on tumor growth (in words) [8]	Animals in which no pocks were observed on any part of the body [9]	Effect on tumor growth (in words) [10]
N.N.[Cl][Pt][Cl] [Cisplatin]	is maintained or increases before subsequently decreasing	decreases more quickly; also recorded: decreases more rapidly	increased to a lesser extent	decreases over the period of time	tumor growth is arrested or decreases	≥ 100 µM	started to inhibit; also recorded: significantly inhibited the virus growth	body weight of the patient is improved and any pock formation dissipates	symptoms subside	Fewer virus-associated side effects	suffers fewer side effects from the virus								
COc1cccc2c1C(=O)c1c(O)c3c(c(O)c1C2=O)C[C@@](O)(C(=O)CO)C[C@@H]3O[C@H]1C[C@H](N)[C@H](O)[C@H](C)O1 [Doxorubicin]	is maintained or increases before subsequently decreasing	decreases more quickly; also recorded: decreases more rapidly	increased to a lesser extent	decreases over the period of time	tumor growth is arrested or decreases			body weight of the patient is improved and any pock formation dissipates	symptoms subside	Fewer virus-associated side effects	suffers fewer side effects from the virus	≥ 1 µM	started to inhibit						
Nc1ccn(C2OC(CO)C(O)C2(F)F)c(=O)n1 (centres unmarked) [Gemcitabine, 4-amino-1-[3,3-difluoro-4-hydroxy-5-(hydroxymethyl)tetrahydrofuran-2-yl]-1H-pyrimidine-2-one]	is maintained or increases before subsequently decreasing	decreases more quickly; also recorded: decreases more rapidly	increases to a lesser extent	decreases over the period of time	tumor growth is arrested or decreases			body weight of the patient is improved and any pock formation dissipates	symptoms subside	Fewer virus-associated side effects	suffers fewer side effects from the virus			tumor growth is arrested or decreases	did not cause any inhibition of tumor growth	≥ 1.0 µM	decrease tumor growth in the mice at both 50 mg/kg and 100 mg/kg doses to some extent		
CCc1c2c(nc3ccc(OC(=O)N4CCC(N5CCCCC5)CC4)cc13)-c1cc3c(c(=O)n1C2)COC(=O)[C@]3(O)CC [Irinotecan]	is maintained or increases before subsequently decreasing	decreases more quickly; also recorded: decreases more rapidly	increased to a lesser extent	decreases over the period of time	tumor growth is arrested or decreases			body weight of the patient is improved and any pock formation dissipates	symptoms subside	Fewer virus-associated side effects	suffers fewer side effects from the virus			tumor growth is arrested or decreases				7 out of 8	increased tumor growth

— patent US20100196325A1 (priority 2007, published 2010)
